Patent publication US20220363662A1, “COMPOUNDS AS LXR AGONISTS” (Integral Biosciences Privated Limited, priority 2021, published 2022)

These compounds were tested against T1, LXR beta (Homo sapiens, UniProt P55055) (assay: LXR beta agonist assay (Lanthascreen TR-FRET)). Conditions: LXR beta-LBD 5 nM, read-out: LXR-β EC50.
T1 construct: 5 μL of 4×LXR beta-LBD was added to each well (final concentration 5 nM); purchased Thermofisher PV4658
T1 sequence (P55055 222-460 limits assumed): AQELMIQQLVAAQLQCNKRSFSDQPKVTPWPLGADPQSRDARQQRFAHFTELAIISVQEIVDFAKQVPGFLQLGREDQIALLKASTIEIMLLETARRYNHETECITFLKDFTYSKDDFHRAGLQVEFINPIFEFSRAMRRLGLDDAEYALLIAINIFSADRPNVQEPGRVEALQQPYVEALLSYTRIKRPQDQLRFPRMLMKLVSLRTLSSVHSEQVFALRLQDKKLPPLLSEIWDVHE
Format: biochemical
Method: EC50 values of compounds against LXR beta were determined at Integral BioSciences (India) using Lanthascreen TR-FRET (Thermofisher, Cat #PV4658). Assay was performed in a 20 μL final volume in a Black 384-well plate (Corning, Cat #4511). Dose response curve for the compounds were prepared in duplicates with starting concentration at 30 μM and a three-fold titration was performed. The reaction buffer consisted of TR-FRET Coregulator Buffer G. To the compound dilution, 5 μL of 4×LXR beta-LBD was added to each well (final concentration 5 nM). An equal volume (5 μL) containing 4×Fl-D22/Tb-anti GST antibody (final concentration 100 nM/10 nM) was added to initiate the enzyme reaction and the reaction was incubated for 60 min at 22° C. after which the plates were read using BioTek Plate reader for TR-FRET every hour up to 4 hours.
Analysis was done using the standard curve by non-linear regression, variable slope inhibitor curve fits (Graph-Pad Prism) and EC50's of compounds were determined wherever possible.

SMILES	EC50 [nM]
CC(C)[C@@](O)(C(=O)N1CCC2(CC1)CN(C1CCN(c3ccc(C(=O)N(C)C)c(Cl)c3)CC1)C2)C(F)(F)F (single isomer, unassigned) [Compound 1.73]	1410
CN(C)C(=O)c1ccc(N[C@@H]2CCCN(C3CCN(C(=O)[C@](O)(c4ccccc4)C(F)(F)F)CC3)C2)cc1Cl [Compound 1.71, 2-chloro-N,N-dimethyl-4-((R)-1′-((R)-3,3,3-trifluoro-2-hydroxy-2-phenylpropanoyl)-1,4′-bipiperidin-3-ylamino)benzamide]	1180
O=C(NCC(F)F)c1ccc(NC2CN(C3CCN(C(=O)C(O)(c4ccccc4)C(F)(F)F)CC3)C2)cc1Cl (stereo not shown) [Compound 1.98, 2-chloro-N-(2,2-difluoroethyl)-4-((1-(1-(3,3,3-trifluoro-2-hydroxy-2-phenylpropanoyl)piperidin-4-yl)azetidin-3-yl)amino)benzamide]	9800
CN(C)C(=O)c1ccc(NC2CN(C3CCN(C(=O)C(O)(C4CCCCC4)C(F)(F)F)CC3)C2)cc1Cl (stereo not shown) [Compound 1.101, 2-chloro-4-((1-(1-(2-cyclohexyl-3,3,3-trifluoro-2-hydroxypropanoyl)piperidin-4-yl)azetidin-3-yl)amino)-N,N-dimethylbenzamide]	4850
O=C(c1ccc(NC2CN(C3CCN(C(=O)C(O)(c4ccccc4)C(F)(F)F)CC3)C2)cc1Cl)N1CCN(C(=O)C2CCC2)CC1 (stereo not shown) [Compound 1.102, 1-(4-(3-((3-chloro-4-(4-(cyclobutanecarbonyl)piperazine-1-carbonyl)phenyl)amino)azetidin-1-yl)piperidin-1-yl)-3,3,3-trifluoro-2-hydroxy-2-phenylpropan-1-one]	3180
CC(=O)N1CCN(C(=O)c2ccc(NC3CN(C4CCN(C(=O)C(O)(c5ccccc5)C(F)(F)F)CC4)C3)cc2Cl)CC1 (stereo not shown) [Compound 1.103, 1-(4-(3-((4-(4-acetylpiperazine-1-carbonyl)-3-chlorophenyl)amino)azetidin-1-yl)piperidin-1-yl)-3,3,3-trifluoro-2-hydroxy-2-phenylpropan-1-one]	> 30000
O=C(c1ccc(NC2CN(C3CCN(C(=O)C(O)(c4ccccc4)C(F)(F)F)CC3)C2)cc1Cl)N1CC(F)(F)C1 (stereo not shown) [Compound 1.110, 1-(4-(3-(3-chloro-4-(3,3-difluoroazetidine-1-carbonyl)phenylamino)azetidin-1-yl)piperidin-1-yl)-3,3,3-trifluoro-2-hydroxy-2-phenylpropan-1-one]	5710
COCCCN(C)C(=O)c1ccc(N2CCN(C3CC4(C3)CN(C(=O)C(O)(c3ccccc3)C(F)(F)F)C4)CC2)cc1Cl (stereo not shown) [Compound 1.119, 2-chloro-N-(3-methoxypropyl)-N-methyl-4-(4-(2-(3,3,3-trifluoro-2-hydroxy-2-phenylpropanoyl)-2-azaspiro[3.3]heptan-6-yl)piperazin-1-yl)benzamide]	2850
CN(C)C(=O)c1c(Cl)cc(NC2CN(C3CCN(C(=O)[C@](O)(c4ccccc4)C(F)(F)F)CC3)C2)cc1Cl [Compound 1.122, (R)-2,6-dichloro-N,N-dimethyl-4-(1-(1-(3,3,3-trifluoro-2-hydroxy-2-phenylpropanoyl)piperidin-4-yl)azetidin-3-ylamino)benzamide]	4260
CN(C)C(=O)c1c(Cl)cc(NC2CN(C3CCN(C(=O)[C@@](O)(c4ccccc4)C(F)(F)F)CC3)C2)cc1Cl [Compound 1.123, (S)-2,6-dichloro-N,N-dimethyl-4-(1-(1-(3,3,3-trifluoro-2-hydroxy-2-phenylpropanoyl)piperidin-4-yl)azetidin-3-ylamino)benzamide]	> 27000
COCCCN(C)C(=O)c1ccc(NC2CN(C3CCN(C(=O)[C@](O)(c4ccccc4)C(F)(F)F)CC3)C2)cc1Cl [Compound 1.124, (R)-2-chloro-N-(3-methoxypropyl)-N-methyl-4-(1-(1-(3,3,3-trifluoro-2-hydroxy-2-phenylpropanoyl)piperidin-4-yl)azetidin-3-ylamino)benzamide]	1570
CN(CCCC(F)(F)F)C(=O)c1ccc(NC2CN(C3CCN(C(=O)[C@](O)(c4ccccc4)C(F)(F)F)CC3)C2)cc1Cl [Compound 1.125, (R)-2-chloro-N-methyl-4-(1-(1-(3,3,3-trifluoro-2-hydroxy-2-phenylpropanoyl)piperidin-4-yl)azetidin-3-ylamino)-N-(4,4,4-trifluorobutyl)benzamide]	3980
CN(C)C(=O)c1c(F)cc(N2CCN(C3CC4(C3)CN(C(=O)C(O)(c3ccccc3)C(F)(F)F)C4)CC2)cc1F (stereo not shown) [Compound 1.126, 2,6-difluoro-N,N-dimethyl-4-(4-(2-(3,3,3-trifluoro-2-hydroxy-2-phenylpropanoyl)-2-azaspiro[3.3]heptan-6-yl)piperazin-1-yl)benzamide]	1580
CN(C)C(=O)c1ccc(C2=CCN(C3CC4(C3)CN(C(=O)C(O)(c3ccccc3)C(F)(F)F)C4)CC2)cc1Cl (stereo not shown) [Compound 1.127, 2-chloro-N,N-dimethyl-4-(1-(2-(3,3,3-trifluoro-2-hydroxy-2-phenylpropanoyl)-2-azaspiro[3.3]heptan-6-yl)-1,2,3,6-tetrahydropyridin-4-yl)benzamide]	3950
CN(C)C(=O)c1cc([N+](=O)[O-])c(NC2CN(C3CCN(C(=O)[C@](O)(c4ccccc4)C(F)(F)F)CC3)C2)cc1Cl [Compound 1.129, (R)-2-chloro-N,N-dimethyl-5-nitro-4-(1-(1-(3,3,3-trifluoro-2-hydroxy-2-phenylpropanoyl)piperidin-4-yl)azetidin-3-ylamino)benzamide]	3470
O=C(NCC(F)F)c1ccc(NC2CN(C3CCN(C(=O)C(O)(c4cccc(Cl)c4)C(F)(F)F)CC3)C2)cc1Cl (stereo not shown) [Compound 1.130, 2-chloro-4-((1-(1-(2-(3-chlorophenyl)-3,3,3-trifluoro-2-hydroxypropanoyl)piperidin-4-yl)azetidin-3-yl)amino)-N-(2,2-difluoroethyl)benzamide]	1570
O=C(c1ccc(NC2CN(C3CCN(C(=O)C(O)(c4cccc(Cl)c4)C(F)(F)F)CC3)C2)cc1Cl)N1CC(F)(F)C1 (stereo not shown) [Compound 1.131, 1-(4-(3-((3-chloro-4-(3,3-difluoroazetidine-1-carbonyl)phenyl)amino)azetidin-1-yl)piperidin-1-yl)-2-(3-chlorophenyl)-3,3,3-trifluoro-2-hydroxypropan-1-one]	1790
O=C(c1ccc(NC2CN(C3CCN(C(=O)C(O)(c4cccc(Cl)c4)C(F)(F)F)CC3)C2)cc1Cl)N1CCC(F)(F)C1 (stereo not shown) [Compound 1.132, 1-(4-(3-((3-chloro-4-(3,3-difluoropyrrolidine-1-carbonyl)phenyl)amino)azetidin-1-yl)piperidin-1-yl)-2-(3-chlorophenyl)-3,3,3-trifluoro-2-hydroxypropan-1-one]	610
O=C(c1ccc(NC2CN(C3CCN(C(=O)C(O)(c4cccc(Cl)c4)C(F)(F)F)CC3)C2)cc1Cl)N1CCC(F)(F)CC1 (stereo not shown) [Compound 1.133, 1-(4-(3-((3-chloro-4-(4,4-difluoropiperidine-1-carbonyl)phenyl)amino)azetidin-1-yl)piperidin-1-yl)-2-(3-chlorophenyl)-3,3,3-trifluoro-2-hydroxypropan-1-one]	995
CC(=O)N1CCN(C(=O)c2ccc(NC3CN(C4CCN(C(=O)C(O)(c5cccc(Cl)c5)C(F)(F)F)CC4)C3)cc2Cl)CC1 (stereo not shown) [Compound 1.134, 1-(4-(3-((4-(4-acetylpiperazine-1-carbonyl)-3-chlorophenyl)amino)azetidin-1-yl)piperidin-1-yl)-2-(3-chlorophenyl)-3,3,3-trifluoro-2-hydroxypropan-1-one]	860

Each compound was assayed on HepG2 (assay: Cell viability assay (resazurin) in HepG2). Conditions: Homo sapiens, 96 hr exposure.
Format: cell-based
Method: HepG2 (ATCC® HB-8065™), hepatocellular carcinoma, A549 (ATCC® CCL-185™), lung epithelial carcinoma, MCF7 (ATCC® HTB-22™), mammary gland epithelial carcinoma, MDA-MB-231 (ATCC® HTB-26™), TNBC, MiaPaCa-2 (ATCC® CRL-1420™) & Panc-1 (ATCC® CRL-1469™), pancreatic epithelial carcinoma, HCT116 (ATCC® CCL-247™), colon epithelial carcinoma and U87MG (ATCC® HTB-14™), brain epithelial carcinoma cell lines respectively were seeded in the respective medium (DMEM, Cat #10569044 with 10% FBS, Cat #16000044; Gibco for HepG2, A549, MCF7, MDA-MB-231, MiaPaCa-2, Panc-1, HCT116 and MEM, Cat #11095080 with 10% FBS for U87MG). Cells were allowed to grow at 37° C. for 24 hr in 5% CO2 (culture conditions) in a Nuaire incubator (humidified). Serially diluted compounds (100 μl) were added to the culture plate 24 hr later and the cultures were further incubated in culture conditions for 96 hr. Experiment was terminated at the completion of 96 hr exposure to the drug by replacing the medium with 100 μl of 1 mM of resazurin (R7017; Sigma) prepared in culture medium and the plates were further incubated in culture conditions for 4 hr. Fluorescence was then measured using a multimodal plate reader (Biotek Synergy Neo) at an excitation wavelength of 535 nm and emission wavelength of 590 nm to obtain relative fluorescence units. Data analysis was done by subtracting the background fluorescence (only medium blank) value from each reading and then normalizing with the vehicle control (DMSO treated cells) to obtain percent survival/proliferation. Percent survival at different doses was used to calculate IC50 by fitting the curve to the “four-parameter variable slope logistic model” using Prism Graph Pad.

SMILES	IC50 [µM]
CC(C)[C@@](O)(C(=O)N1CCC2(CC1)CN(C1CCN(c3ccc(C(=O)N(C)C)c(Cl)c3)CC1)C2)C(F)(F)F (single isomer, unassigned) [Compound 1.73]	> 30
CN(C)C(=O)c1ccc(N[C@@H]2CCCN(C3CCN(C(=O)[C@](O)(c4ccccc4)C(F)(F)F)CC3)C2)cc1Cl [Compound 1.71, 2-chloro-N,N-dimethyl-4-((R)-1′-((R)-3,3,3-trifluoro-2-hydroxy-2-phenylpropanoyl)-1,4′-bipiperidin-3-ylamino)benzamide]	> 29.4
